In PubChem BioAssay AID1963829 (Molecular Pharmacology Branch, DTP, NCI, 2024):
Where “and” joins values, the source holds several entries; their conditions need not be identical. Identical values can stand only once.

Test system: 935938-334-R-J1-PDC complex spheroid viability
Experiment: Anticancer human tumor 935938-334-R-J1-PDC patient-derived small intestine adenocarcinoma cell line growth inhibition [POLQ]
Settings: for viability, T/C: stronger effect = lower value
Protocol: Multicellular complex tumor spheroid response to Polymerase (POL) inhibitors (novobiocin, ART-558, RP6685) in combination with a variety of drugs and investigational agents in selected tumor cell lines
The POL inhibitors (novobiocin, ART-558, and RP6685) were evaluated both individually and in combination with standard of care and investigational anticancer small molecules within a complex spheroid model of solid tumors. . Complex spheroids include a stromal component modeled by human endothelial cells (HUVEC) and fibroblasts modeled by human mesenchymal stem cells (MSCs). The concentration ranges selected for each drug and investigational agent were based upon clinically achievable concentrations if the clinical Cmax of the agent was known.
Compounds. The drugs and investigational agents: novobiocin (NSC847541), ART-558 (NSC835418), RP-6685 (NSC848927), peposertib (NSC802822), ceralasertib (NSC780249), elimusertib (NSC800525), camonsertib (NSC841442), AZD-1390 (NSC803789), olaparib (NSC753686), talazoparib (NSC767125), rucaparib (NSC756644), sotorasib (NSC818433), MRTX-1133 (NSC836407), SN-38 (NSC673596), topotecan (NSC609699), epotoside (NSC141540), doxorubicin (NSC123127), gemcitabine (NSC613327), 5-fluorouracil (NSC19893), paclitaxel (NSC125973), vemurafenib (NSC761431), MSA-2 (NSC828583), SN-011 (NSC837082), adavosertib (NSC754352), prexasertib (NSC758257), carboplatin (NSC241240) and oxaliplatin (NSC266046), were obtained from the National Cancer Institute (NCI) Developmental Therapeutics Program Chemical Repository (21). The FDA-approved anticancer drug set is available from the Developmental Therapeutics Program at https://dtp.cancer.gov/organization/dscb/obtaining/. […] The stock solutions were prepared in dimethyl sulfoxide (DMSO, Sigma-Aldrich, St. Louis, MO, cat. D2650), except for the platinum compounds which were prepared in saline (Quality Biological, Gaithersburg, MD, cat. 114-055-101), at 800-fold the tested concentration and stored at -70 degrees C prior to their use. All drugs and investigational agents were tested over a range starting from a high concentration at or near the clinical Cmax and decreasing in half-log increments. If the clinical Cmax for an agent had not been determined, the highest concentration tested was 10 microM, except for SN-38, which was tested at a high concentration of 1 microM.
Cell Culture. All cells were maintained in an incubator at 37 degrees C and 5% CO2 with 95% humidity. The PDC lines were cultured according to standard operating procedures established by the NCI PDMR (https://pdmr.cancer.gov). Table 3 of the manuscript, lists the cell lines along with the number of the three cell types plated to form the mct-spheroids and media for tumor cell growth. After thawing, all PDC lines, except 997537-175-T-J1-PDC and 415267-285-R-J2-PDC, were cultured in Matrigel-coated flasks prepared with a working solution of 1X Ham's F-12 nutrient mix, without supplementation (Thermo Fisher Scientific, cat. 11765054), 100 U/mL penicillin-streptomycin (Thermo Fisher Scientific, cat. 15140122), and 2.5% Matrigel (Corning Inc., Corning, NY, cat. 354248) for the first three passages. The two PDC lines 997537-175-T-J1-PDC and 415267-285-R-J2-PDC were cultured on uncoated flasks. The 857933-349-R-J2-PDC line was cultured in 6C/Colon 1B media containing advanced DMEM/F-12 (Thermo Fisher Scientific, cat. 12634028), 10 mM HEPES (Thermo Fisher Scientific, cat. 15630080), 1X GlutaMAX supplement (Thermo Fisher Scientific, cat. 35050061), 0.1 mg/mL primocin (InvivoGen, San Diego, CA, cat. ant-pm-2), 10% defined fetal bovine serum, heat inactivated (HyClone Laboratories Inc., Logan, UT, cat. SH30070.03HI), 50% L-WRN conditioned media (ATCC, cat. CRL-3276), 1.25 mM N-Acetyl-L-cysteine (Sigma-Aldrich, cat. A9165), 10 mM nicotinamide (Sigma-Aldrich, cat. N0636), 1X B-27 supplement (Thermo Fisher Scientific, cat. 17504044), 1X N-2 supplement (Thermo Fisher Scientific, cat. […]
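Further: spheroids exposed to drugs for seven days before viability read.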
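Wherever viability, T/C is given: 100% = DMSO vehicle control wells.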

SMILES: CC[C@@]1(O)C(=O)OCc2c1cc1n(c2=O)Cc2cc3c(CN(C)C)c(O)ccc3nc2-1
- viability, T/C (compound 0.000316 µM): 81.3% and 82.1% and 82.2%
- viability, T/C (compound 0.001 µM): 103% and 107% and 86.1%
- viability, T/C (compound 0.00316 µM): 72.4% and 89.2% and 99%
- viability, T/C (compound 0.01 µM): 103% and 118% and 92.3%
- viability, T/C (compound 0.0316 µM): 96.8% and 83.6% and 81.2%
- viability, T/C (compound 0.1 µM): 49.7% and 61.4% and 63%
- IC50 (curve of compound): 0.0992 µM and > 0.1 µM

SMILES: COc1ccc([C@@H](O)c2cc(-c3ncnc4cc(N5CCOCC5)ccc34)c(F)cc2Cl)nn1 + Nc1ccc(C#CCN(C(=O)Cc2ncc(C(F)(F)F)cc2C(F)(F)F)c2ccc(F)cc2)nn1
- IC50 (curve of first compound, second compound 0.0316 µM): 6.57 µM
- IC50 (curve of first compound, second compound 0.1 µM): 5.84 µM
- IC50 (curve of first compound, second compound 0.316 µM): 5.43 µM
- IC50 (curve of first compound, second compound 1 µM): 5.24 µM
- IC50 (curve of first compound, second compound 3.16 µM): 3.68 µM
- IC50 (curve of first compound, second compound 10 µM): 2.04 µM
- viability, T/C (second compound 0.0316 µM, first compound 0.0316 µM): 87.1%
- viability, T/C (second compound 0.0316 µM, first compound 0.1 µM): 81.3%
- viability, T/C (second compound 0.0316 µM, first compound 0.316 µM): 98.4%
- viability, T/C (second compound 0.0316 µM, first compound 1 µM): 102%
- viability, T/C (second compound 0.0316 µM, first compound 3.16 µM): 59.2%
- viability, T/C (second compound 0.0316 µM, first compound 10 µM): 44.7%
- viability, T/C (second compound 0.1 µM, first compound 0.0316 µM): 120%
- viability, T/C (second compound 0.1 µM, first compound 0.1 µM): 98.5%
- viability, T/C (second compound 0.1 µM, first compound 0.316 µM): 105%
- viability, T/C (second compound 0.1 µM, first compound 1 µM): 109%
- viability, T/C (second compound 0.1 µM, first compound 3.16 µM): 73.7%
- viability, T/C (second compound 0.1 µM, first compound 10 µM): 29.4%
- viability, T/C (second compound 0.316 µM, first compound 0.0316 µM): 106%
- viability, T/C (second compound 0.316 µM, first compound 0.1 µM): 106%
- viability, T/C (second compound 0.316 µM, first compound 0.316 µM): 110%
- viability, T/C (second compound 0.316 µM, first compound 1 µM): 84.9%
- viability, T/C (second compound 0.316 µM, first compound 3.16 µM): 74.8%
- viability, T/C (second compound 0.316 µM, first compound 10 µM): 25%
- viability, T/C (second compound 1 µM, first compound 0.0316 µM): 118%
- viability, T/C (second compound 1 µM, first compound 0.1 µM): 96.6%
- viability, T/C (second compound 1 µM, first compound 0.316 µM): 106%
- viability, T/C (second compound 1 µM, first compound 1 µM): 82.3%
- viability, T/C (second compound 1 µM, first compound 3.16 µM): 70.1%
- viability, T/C (second compound 1 µM, first compound 10 µM): 28.5%
- viability, T/C (second compound 3.16 µM, first compound 0.0316 µM): 109%
- viability, T/C (second compound 3.16 µM, first compound 0.1 µM): 98.9%
- viability, T/C (second compound 3.16 µM, first compound 0.316 µM): 96.5%
- viability, T/C (second compound 3.16 µM, first compound 1 µM): 80.5%
- viability, T/C (second compound 3.16 µM, first compound 3.16 µM): 52.1%
- viability, T/C (second compound 3.16 µM, first compound 10 µM): 29.6%
- viability, T/C (second compound 10 µM, first compound 0.0316 µM): 81.1%
- viability, T/C (second compound 10 µM, first compound 0.1 µM): 83.6%
- viability, T/C (second compound 10 µM, first compound 0.316 µM): 118%
- viability, T/C (second compound 10 µM, first compound 1 µM): 60.5%
- viability, T/C (second compound 10 µM, first compound 3.16 µM): 54%
- viability, T/C (second compound 10 µM, first compound 10 µM): 33.1%

SMILES: CC(C)n1c(=O)n(C)c2cnc3cc(F)c(-c4ccc(OCCCN5CCCCC5)nc4)cc3c21
- viability, T/C (compound 0.0316 µM): 75.1% and 94.3% and 79.1%
- viability, T/C (compound 0.1 µM): 104% and 75.2% and 67.4%
- viability, T/C (compound 0.316 µM): 103% and 102% and 65.2%
- viability, T/C (compound 1 µM): 92.1% and 121% and 73.4%
- viability, T/C (compound 3.16 µM): 113% and 120% and 72.1%
- viability, T/C (compound 10 µM): 94.9% and 91.5% and 72.9%
- IC50 (curve of compound): > 10 µM

SMILES: COc1cc2cc(C(=O)CCC(=O)O)sc2cc1OC
- viability, T/C (compound 0.0316 µM): 106% and 94.9% and 129%
- viability, T/C (compound 0.1 µM): 67.4% and 98.4% and 94.5%
- viability, T/C (compound 0.316 µM): 126% and 89.9% and 95.3%
- viability, T/C (compound 1 µM): 100% and 99.5% and 86.7%
- viability, T/C (compound 3.16 µM): 84.1% and 107% and 110%
- viability, T/C (compound 10 µM): 67.2% and 78.6% and 93.8%
- IC50 (curve of compound): > 10 µM

SMILES: CCc1c2c(nc3ccc(O)cc13)-c1cc3c(c(=O)n1C2)COC(=O)[C@]3(O)CC
- viability, T/C (compound 0.00316 µM): 59.3% and 81% and 86.5%
- viability, T/C (compound 0.01 µM): 70.9% and 60% and 64%
- viability, T/C (compound 0.0316 µM): 42.9% and 36.9% and 39.4%
- viability, T/C (compound 0.1 µM): 31.1% and 30.2% and 33.9%
- viability, T/C (compound 0.316 µM): 39.8% and 38.2% and 27.4%
- viability, T/C (compound 1 µM): 35.2% and 33.7% and 25.6%
- IC50 (curve of compound): 0.0219 µM and 0.0163 µM and 0.0201 µM
